Data as given in patent publication EP4786466A1, “QUINAZOLINE DERIVATIVE, SALT THEREOF, AND PHARMACEUTICAL COMPOSITION COMPRISING SAME AS ACTIVE INGREDIENT” (Korea Research Institute of Chemical Technology, priority 2023, dated 2025).
Like-named read-outs stand apart in the source and are kept apart here.

Assays:
[1] = system: MCF10A normal breast cancer cell lines; experiment: Cell viability analysis, WST-8 assay, MCF10A; settings: compound 1 µM, 72 hours
Method: (§1) MCF7 breast cancer cell lines and MCF10A normal breast cancer cell lines were treated with serial dilutions of the compounds of the present invention ranging from 1 µM to 15.63 nM for 72 hours. Cell viability was measured by the WST-8 assay (Cyto XTM cell viability assay kit; LPS solution, Daejeon, Korea) according to the manufacturer's instructions.

[2] = system: pENSA; experiment: pENSA level by immunofluorescence (described method: in vitro kinase analysis with GST-tag-MASTL and His-tag-ENSA); format: cell-based; settings: for pENSA (%) Immunofluor ecense (1 µM): compound 1 µM
How it was run: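 In vitro kinase reaction using recombinant GST-tagged MASTL with His-tagged ENSA as substrate; phosphorylated ENSA (pENSA) serves as read-out of MASTL activity. Cell lines named: MCF7 breast cancer and MCF10A.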

[3] = molecular target: T1, Recombinant GST-TAG-MASTL (Homo sapiens, UniProt Q96GX5); experiment: HTRF-based kinase assay (HTRF KinEASE assay kit); format: biochemical; settings: for activity at 1 µM: read-out: MASTL activity (%) HTRF (1 µM); for activity at 10 µM: footnote b: concentration 10 µM
T1 construct: GST; purchased Thermo Fisher Scientific
T1 sequence (Q96GX5 1-879): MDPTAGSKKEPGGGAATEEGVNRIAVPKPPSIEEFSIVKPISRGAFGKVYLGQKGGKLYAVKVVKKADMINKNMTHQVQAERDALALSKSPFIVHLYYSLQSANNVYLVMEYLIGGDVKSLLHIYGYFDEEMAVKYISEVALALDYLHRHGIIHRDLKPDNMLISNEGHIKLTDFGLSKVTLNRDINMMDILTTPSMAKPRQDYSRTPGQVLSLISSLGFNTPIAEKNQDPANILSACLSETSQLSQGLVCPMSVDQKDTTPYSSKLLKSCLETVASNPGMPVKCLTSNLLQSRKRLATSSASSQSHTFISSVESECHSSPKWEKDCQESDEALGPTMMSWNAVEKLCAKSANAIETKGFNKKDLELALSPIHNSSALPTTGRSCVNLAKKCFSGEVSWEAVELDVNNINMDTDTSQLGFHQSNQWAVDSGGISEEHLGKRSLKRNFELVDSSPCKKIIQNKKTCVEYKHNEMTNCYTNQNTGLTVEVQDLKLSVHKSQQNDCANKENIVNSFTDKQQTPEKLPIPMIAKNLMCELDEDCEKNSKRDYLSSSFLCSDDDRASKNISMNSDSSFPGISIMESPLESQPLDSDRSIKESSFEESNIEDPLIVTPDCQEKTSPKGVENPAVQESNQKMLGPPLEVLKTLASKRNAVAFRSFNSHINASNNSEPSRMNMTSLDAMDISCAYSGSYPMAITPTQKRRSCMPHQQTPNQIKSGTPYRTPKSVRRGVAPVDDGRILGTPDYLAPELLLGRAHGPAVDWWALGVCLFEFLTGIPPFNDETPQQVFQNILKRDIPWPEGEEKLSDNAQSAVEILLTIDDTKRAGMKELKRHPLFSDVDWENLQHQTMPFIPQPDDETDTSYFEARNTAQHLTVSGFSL
Text: Recombinant GST-TAG-MASTL (Thermo Fisher Scientific, MA, USA) was used for HTRF-based kinase assays. The HTRF KinEASE assay kit (CisBio, MA, USA) was used according to the manufacturer's instructions.

[4] = system: MCF7 breast cancer cell lines; experiment: Cell viability analysis, WST-8 assay, MCF7; settings: for viability at 1.1 µM / IC50 / viability at 1 µM / viability at 1.25 µM: Homo sapiens, MCF7, 72 h; for viability at 1.1 µM: read-out: Cell viability (%) WST-8, MCF7, footnote d: concentration 1.1 µM, 72 hours; for viability at 1 µM: read-out: Cell viability (%) WST-8, MCF7 (1 µM), compound 1 µM, 72 hours; for viability at 1.25 µM: read-out: Cell viability (%) WST-8, MCF7, footnote a: concentration 1.25 µM, 72 hours
Method: as §1

[5] = system: MCF10A normal breast cell lines; experiment: Cell viability analysis, WST-8 assay, MCF10A; settings: Homo sapiens, MCF-10A, 72 h
Method: as §1

[6] = in vitro; settings: human
Method: as §1

[7] = read-out: IC50 Cell viability (MCF10A)
[8] = HTRF, read-out: IC50(nM) MASTL activity
[9] = read-out: IC50 Cell viability (MCF7)
[10] = read-out: IC50(nM) Cell viability (MCF10A)
[11] = read-out: IC50(nM) Cell viability (MCF7)
[12] = read-out: MASTL activity (%) HTRF
[13] = HTRF, unit µM, read-out: IC50 MASTL activity

Structure (SMILES) | pENSA (%) Immunofluor ecense (1 µM) [2] | IC50 [3, 8] | activity at 1 µM ([3]; compound 1 µM) | IC50 [5, 10] | viability at 1 µM ([6]; mcf10a cells) | viability at 1 µM [4] | IC50 [4, 11] | also measured
COc1ccc(CNc2nc(Nc3cc(C4CC4)[nH]n3)c3ccccc3n2)cc1 [4ad, M^4-(5-cyclopropyl-1G-pyrazol-3-yl)-M^2-(4-methoxybenzyl)quinazoline-2,4-diamine] | 143% | – | – | – | – | – | – | Cell viability (%) WST-8, MCF10A (1 µM) [1]: 96.0%; MASTL activity (%) HTRF (1 µM) ([3]; compound 1 µM): 65.7%; Cell viability (%) WST-8, MCF7 (1 µM) ([4]; compound 1 µM, 72 hours): 96.4%
O=S(=O)(c1ccccc1)N1CC2CC1CN2c1nc(Nc2cc(C3CC3)[nH]n2)c2ccccc2n1 (centres unmarked) [compound 15m, M-(5-cyclopropyl-1G-pyrazol-3-yl)-2-(5-(phenylsulfonyl)-2,5-diazabicyclo[2.2.1]heptan-2-yl)quinazolin-4-amine] | 82.6% | 490 nM | 28.7% | – | – | – | – | IC50 [5, 7]: 1900 nM; viability at 1.1 µM ([6]; mcf10a cells): 82.2%; viability at 1.1 µM [4]: 111%; IC50 [4, 9]: 4200 nM
Cc1ccc(C2=CCN(c3nc(Nc4cc(C5CC5)[nH]n4)c4ccccc4n3)CC2)c(C)c1 [compound 6j, M-(5-cyclopropyl-1G-pyrazol-3-yl)-2-(4-(2,4-dimethylphenyl)-3,6-dihydropyridin-1(2G)-yl)quinazolin-4-amine] | 97.4% | – | 80% | 566 nM | 33.1% | 45.6% | 674 nM | –
CCNC(=O)N1CCN(c2nc(Nc3cc(C4CC4)[nH]n3)c3ccccc3n2)CC1 [compound 12c, 4-(4-((5-cyclopropyl-1G-pyrazol-3-yl)amino)quinazolin-2-yl)-M-ethylpiperazine-1-carboxamide] | 75.8% | – | – | – | – | – | – | IC50 [5, 7]: 1400 nM; activity at 10 µM [3, 12]: 45.7%; viability at 1.25 µM ([6]; mcf10a cells): 61.3%; viability at 1.25 µM [4]: 107%
Cc1cc(Cl)ccc1C1=CCN(c2nc(Nc3cc(C4CC4)[nH]n3)c3ccccc3n2)CC1 [compound 6l, 2-(4-(4-chloro-2-methylphenyl)-3,6-dihydropyridin-1(2G)-yl)-M-(5-cyclopropyl-1G-pyrazol-3-yl)quinazolin-4-amine] | 101% | – | 76.1% | 332 nM | 15.2% | 47.8% | 484 nM | –
NC(=O)Cc1ccc(Nc2nc(Nc3cc(C4CC4)[nH]n3)c3ccccc3n2)cc1 [compound 4u, 2-(4-((4-((5-cyclopropyl-1G-pyrazol-3-yl)amino)quinazolin-2-yl)amino)phenyl)acetamide] | 41.2% | 392 nM | 30.5% | 718 nM | 25.5% | 64.8% | – | –
CC(C)S(=O)(=O)N1CC2CC1CN2c1nc(Nc2cc(C3CC3)[nH]n2)c2ccccc2n1 (centres unmarked) [compound 15h, M-(5-cyclopropyl-1G-pyrazol-3-yl)-2-(5-(isopropylsulfonyl)-2,5-diazabicyclo[2.2.1]heptan-2-yl)quinazolin-4-amine] | 51.7% | 147 nM | 15.7% | 833 nM | – | – | – | viability at 1.1 µM ([6]; mcf10a cells): 45%; viability at 1.1 µM [4]: 94.5%; IC50 [4, 9]: 1700 nM
O=S(=O)(c1ccc(F)cc1F)N1CC2CC1CN2c1nc(Nc2cc(C3CC3)[nH]n2)c2ccccc2n1 (centres unmarked) [compound 15o, M-(5-cyclopropyl-1G-pyrazol-3-yl)-2-(5-((2,4-difluorophenyl)sulfonyl)-2,5-diazabicyclo[2.2.1]heptan-2-yl)quinazolin-4-amine] | 90.3% | 170 nM | 20.3% | – | – | – | – | IC50 [5, 7]: 2400 nM; viability at 1.1 µM ([6]; mcf10a cells): 92.6%; viability at 1.1 µM [4]: 119%; IC50 [4, 9]: 3700 nM
CC(C)(C)OC(=O)N1CC2CC1CN2c1nc(Nc2cc(C3CC3)[nH]n2)c2ccccc2n1 (centres unmarked) [compound 13, sdqs-butyl 5-(4-((5-cyclopropyl-1G-pyrazol-3-yl)amino)quinazolin-2-yl)-2,5-diazabicyclo[2.2.1]heptane-2-carboxylate] | 90% | – | – | 316 nM | – | – | 932 nM | IC50 [3, 13]: 1000 nM; activity at 1.25 µM ([3]; footnote a: concentration 1.25 µM, read-out: MASTL activity (%) HTRF): 53.8%; viability at 1.25 µM ([6]; mcf10a cells): 15.9%; viability at 1.25 µM [4]: 62%
Nc1ccc(Nc2nc(Nc3cc(C4CC4)[nH]n3)c3ccccc3n2)cc1 [compound 4v, M^2-(4-aminophenyl)-M^4-(5-cyclopropyl-1G-pyrazol-3-yl)quinazoline-2,4-diamine] | 15.3% | – | 41.4% | 438 nM | 34.1% | 32.8% | 390 nM | IC50 [3, 13]: 1500 nM
c1ccc2c(Nc3cc(C4CC4)[nH]n3)nc(Nc3ccc4[nH]ccc4c3)nc2c1 [compound 4db, N^4-(5-cyclopropyl-1H-pyrazol-3-yl)-N^2-(1H-indol-5-yl)quinazoline-2,4-diamine] | – | – | 28.9% | 300 nM | – | 3.2% | 221 nM | IC50 ([2]; unit µM, read-out: IC50 pENSA): 2.1 µM; viability at 1 µM [6]: 8.9%
c1ccc2c(Nc3cc(C4CC4)[nH]n3)nc(Nc3ccc4[nH]ncc4c3)nc2c1 [compound 4dd, N^4-(5-cyclopropyl-1H-pyrazol-3-yl)-N^2-(1H-indazol-5-yl)quinazoline-2,4-diamine] | – | 157 nM | 17.9% | 107 nM | – | 12.9% | 317 nM | IC50 ([2]; unit µM, read-out: IC50 pENSA): 1.5 µM; viability at 1 µM [6]: 3.7%
c1ccc2c(Nc3cc(C4CC4)[nH]n3)nc(N3CC4CCC3CN4)nc2c1 (centres unmarked) [compound 20, 2-(2,5-diazabicyclo[2.2.2]octan-2-yl)-M-(5-cyclopropyl-1G-pyrazol-3-yl)quinazolin-4-amine trifluoroacetic acid] | 30.9% | – | – | 131 nM | 3.9% | 5.5% | 150 nM | IC50 ([2]; read-out: IC50(nM) pENSA): 0.0665 µM; IC50 [3]: 194 nM; activity at 1 µM [3]: 36.5%
NC(=O)c1ccc(Nc2nc(Nc3cc(C4CC4)[nH]n3)c3ccccc3n2)cc1 [compound 4t, 4-((4-((5-cyclopropyl-1G-pyrazol-3-yl)amino)quinazolin-2-yl)amino)benzamide] | 0.9% | 198 nM | 14.9% | 226 nM | 18.4% | 2.7% | 324 nM | IC50 ([2]; read-out: IC50(nM) pENSA): 0.341 µM
c1ccc2c(Nc3cc(C4CC4)[nH]n3)nc(N3CCC4(CC3)OCCO4)nc2c1 [compound 6a, M-(5-cyclopropyl-1G-pyrazol-3-yl)-2-(1,4-dioxa-8-azaspiro[4.5]decan-8-yl)quinazolin-4-amine] | 10.1% | 340 nM | 15.2% | 392 nM | 20.9% | 13.2% | 499 nM | IC50 ([2]; read-out: IC50(nM) pENSA): 0.532 µM
CNS(=O)(=O)c1ccc(Nc2nc(Nc3cc(C4CC4)[nH]n3)c3ccccc3n2)cc1 [compound 4h, 4-((4-((5-cyclopropyl-1G-pyrazol-3-yl)amino)quinazolin-2-yl)amino)-M-methylbenzenesulfonamide] | 17.1% | 843 nM | – | 57.2 nM | – | – | 758 nM | IC50 ([2]; read-out: IC50(nM) pENSA): 0.408 µM; activity at 10 µM [3, 12]: 17.6%; viability at 1.25 µM ([6]; mcf10a cells): 4.7%; viability at 1.25 µM [4]: 41.8%
